Each structure is given as a SMILES string.

From EP0528661A2, “HIV protease inhibitors with N-terminal polyether substituents” (MERCK & CO. INC., priority 1991, dated 1993) come the findings set out here.

In this assay the target is T1, HIV protease (Human immunodeficiency virus type 1 group M subtype B, UniProt P12497).
T1 construct: the protease expressed in Eschericia coli; made in house; host or cells: Escherichia coli
In words: Assay for inhibition of microbial expressed viral protease (peptide substrate cleavage, HPLC quantitation). Conditions: protease expressed in Eschericia coli; peptide substrate Val-Ser-Gln-Asn-(betanapthyl)Ala-Pro-Ile-Val 0.5 mg/mL; 50 mM Na acetate, pH 5.5, 30°C, 1 hour; read-out: IC₅₀. In kind it is biochemical. How it is done: Assay for Inhibition of Microbial Expressed Viral Protease
Inhibition studies of the reaction of the protease expressed in Eschericia coli with a peptide substrate [Val-Ser-Gln-Asn-(betanapthyl)Ala-Pro-Ile-Val, 0.5 mg/mL at the time the reaction is initiated] were in 50 mM Na acetate, pH 5.5, at 30°C for 1 hour. Various concentrations of inhibitor in 1.0 ul DMAO were added to 25 ul of the peptide solution in water. The reaction is initiated by the addition of 15 ul of 0.33 nM protease (0.11 ng) in a solution of 0.133 M Na acetate pH 5.5 and 0.26% bovine serum albumin. The reaction was quenched with 160 ul of 5% phosphoric acid. Products of the reaction were separated by HPLC (VYDAC wide pore 5 cm C-18 reverse phase, acetonitrile gradient, 0.1% phosphoric acid). The extent of inhibition of the reaction was determined from the peak heights of the products.

In the case of `COCCOCCOCCOCCOC(=O)N[C@@H](Cc1ccccc1)[C@@H](O)C[C@@H](Cc1ccccc1)C(=O)N[C@H]1c2ccccc2C[C@H]1O` [Compound A, N-(2(R)-hydroxy-1(S)-indanyl)-5(S)-(3,6,9,12-tetraoxatridecyloxycarbonylamino)-4(S)-hydroxy-2(R)-phenylmethyl-6-phenylhexanamide], the IC50 is about 5 nM.
